Several values for one entry are separate records, joined by “and”; a condition that tells them apart may be missing. Identical values can stand only once.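 96-well plates; 48 h exposure; 5 concentrations. Endpoints by linear interpolation between flanking doses. Not reached: highest tested concentration assigned. The concentration for 50% growth inhibition is given as GI50. TGI is the concentration that stops growth completely.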

Some test systems named below: SN12C renal; HS 578T breast; MALME-3M melanoma; CCRF-CEM leukemia; SK-MEL-28 melanoma; SNB-19 CNS; NCI-H522 lung; SR leukemia; SK-MEL-5 melanoma; U251 CNS.
Holding throughout (assay): NCI anticancer screen, dose series, 48 h

Regarding `Nc1ccccc1NC(=O)c1ccc(CN2CCC/C(=C\c3cccc(Cl)c3)C2=O)cc1`, the GI50 was 0.708 µM in the test with SN12C renal; 0.321 µM with HS 578T breast; 1.59 µM with MALME-3M melanoma; 0.866 µM in the test with CCRF-CEM leukemia; 1.16 µM in the test on SK-MEL-28 melanoma; 0.355 µM in the test on SNB-19 CNS. Further, the GI50 in the test with NCI-H522 lung is 0.225 µM; with SR leukemia it was 0.156 µM; in the test with SK-MEL-5 melanoma, 0.0836 µM; with U251 CNS, 0.138 µM. For the same compound, the TGI in the test with SN12C renal was 85.3 µM; in the test on HS 578T breast it was over 100 µM; with MALME-3M melanoma, 16.4 µM; with CCRF-CEM leukemia, over 100 µM; in the test with SK-MEL-28 melanoma, 58.9 µM; in the test on SNB-19 CNS, over 100 µM. Further, the TGI with NCI-H522 lung was 1.06 µM; in the test on SR leukemia, over 100 µM; with SK-MEL-5 melanoma, 1.08 µM; with U251 CNS, 13.2 µM.

With `Oc1cc(O)c2c(=S)cc(-c3ccc(Cl)cc3)oc2c1`, the GI50 in the test with SN12C renal is 2.78 µM; with HS 578T breast, 3.56 µM; in the test with MALME-3M melanoma, 2.01 µM; in the test on CCRF-CEM leukemia, 4.02 µM; with SK-MEL-28 melanoma it was 4.15 µM; in the test with SNB-19 CNS it was 3.68 µM. In addition, the GI50 was 2.29 µM in the test with NCI-H522 lung, 3.52 µM in the test on SR leukemia, 1.89 µM in the test with SK-MEL-5 melanoma and 3.24 µM with U251 CNS. Also, the TGI is 11.1 µM with SN12C renal; 40.3 µM in the test with HS 578T breast; 6.71 µM with MALME-3M melanoma; over 63.1 µM in the test with CCRF-CEM leukemia; 18.4 µM with SK-MEL-28 melanoma; 16.3 µM with SNB-19 CNS. In addition, the TGI with NCI-H522 lung was determined as 7.25 µM; in the test with SR leukemia it was 29.6 µM; in the test with SK-MEL-5 melanoma it was 5.04 µM; with U251 CNS, 11.3 µM.

Consider `CC1(C)C(=S)C(C)(C)C1=S`, for which the TGI in the test with SN12C renal, in the test on HS 578T breast, in the test with MALME-3M melanoma, with SK-MEL-28 melanoma, in the test on SNB-19 CNS and in the test on SR leukemia was over 100 µM throughout. Moreover, the TGI in the test with SK-MEL-5 melanoma and in the test on U251 CNS was over 100 µM in each case.

Take `C[C@H]1CC[C@@H]2[C@@H](C)[C@H]3[C@H](C[C@H]4[C@@H]5CC=C6C[C@@H](O)CC[C@]6(C)[C@H]5C[C@H](O)[C@]34C)N2C1`: the TGI in the test on SN12C renal, in the test on HS 578T breast, in the test with MALME-3M melanoma, with SK-MEL-28 melanoma, in the test with SNB-19 CNS and in the test with NCI-H522 lung was over 100 µM throughout. In addition, the TGI in the test with SR leukemia, in the test with SK-MEL-5 melanoma and in the test on U251 CNS was over 100 µM in each case.

In the case of `COc1cccc(C2C3=C(COC3=O)N(CCO)c3cc4c(cc32)OCCO4)c1` (configuration not stated), the TGI in the test on SN12C renal is over 50 µM; in the test with HS 578T breast, 22.1 µM; in the test on MALME-3M melanoma it was over 50 µM; with CCRF-CEM leukemia, over 50 µM; with SK-MEL-28 melanoma, over 50 µM; with SNB-19 CNS, over 15.8 µM. The TGI in the test with NCI-H522 lung is 0.0208 µM; with SK-MEL-5 melanoma, 1.23 µM; in the test on U251 CNS, over 50 µM. In addition, the GI50 in the test on HS 578T breast is 0.114 µM; in the test on MALME-3M melanoma, 49.1 µM; in the test on CCRF-CEM leukemia, 0.151 µM; in the test with SK-MEL-28 melanoma it was over 50 µM; in the test with NCI-H522 lung it was 0.00807 µM; in the test with SR leukemia it was 0.0271 µM. Besides, the GI50 in the test on SK-MEL-5 melanoma is 0.0474 µM; in the test on U251 CNS, 0.221 µM.

As for `CC1OC(OC2CC(O)C3(CO)C4C(O)CC5(C)C(C6=CC(=O)OC6)CCC5(O)C4CCC3(O)C2)C(O)C(O)C1O` (configuration not stated), the TGI was 0.0228 µM in the test with SN12C renal; 0.304 µM in the test with HS 578T breast; 0.0172 µM in the test with MALME-3M melanoma; 0.251 µM in the test with SK-MEL-28 melanoma; 0.177 µM with SNB-19 CNS; under 0.0312 µM in the test on NCI-H522 lung. The TGI in the test with SR leukemia was found to be 0.0546 µM; in the test on SK-MEL-5 melanoma, 0.0267 µM; in the test on U251 CNS, 0.0683 µM. Moreover, the GI50 in the test with HS 578T breast is under 0.0155 µM; in the test with MALME-3M melanoma it was under 0.0131 µM; in the test on SK-MEL-28 melanoma, 0.0646 µM; in the test with SNB-19 CNS, 0.0296 µM; in the test on NCI-H522 lung, under 0.0147 µM; in the test on SR leukemia it was 0.0221 µM. The values for the GI50 with SK-MEL-5 melanoma and with U251 CNS were under 0.0151 µM and 0.0219 µM, respectively.

On to `COc1cc([C@@H]2c3cc4c(cc3[C@H](O)[C@H]3COC(=O)[C@H]23)OCO4)cc(OC)c1OC`, for which the GI50 in the test on SN12C renal was under 0.005 µM; in the test with HS 578T breast it was under 0.01 µM; in the test with CCRF-CEM leukemia it was under 0.01 µM; in the test on SK-MEL-28 melanoma it was under 0.01 µM; with SNB-19 CNS, under 0.01 µM; with NCI-H522 lung, under 0.01 µM. Besides, the GI50 in the test on SR leukemia is under 0.01 µM; in the test on U251 CNS, under 0.005 µM. Besides, the TGI is > 100 µM and 35 µM in the test with SN12C renal; > 100 µM and 50 µM and > 94 µM in the test on HS 578T breast; > 100 µM and 50 µM in the test with MALME-3M melanoma; > 100 µM and 50 µM with SK-MEL-28 melanoma; > 100 µM and 50 µM in the test with SNB-19 CNS; under 0.01 µM with NCI-H522 lung. The TGI in the test with SR leukemia is under 0.005 µM; in the test with SK-MEL-5 melanoma, 0.0477 µM; with U251 CNS it was > 100 µM and 50 µM and > 7.6 µM.

Consider `O=C(CCCc1ccccn1)c1ccccc1`, for which the TGI in the test on SN12C renal, with HS 578T breast, in the test with MALME-3M melanoma, in the test on CCRF-CEM leukemia, with SK-MEL-28 melanoma and in the test with SNB-19 CNS was over 100 µM each time. For the same compound, the TGI with NCI-H522 lung, with SK-MEL-5 melanoma and in the test on U251 CNS was over 100 µM in each case.

Consider `N#Cc1cccc(NC(=O)c2oc3ccccc3c2-c2cnn(-c3ccccc3)c2)c1`, for which the GI50 was over 500 µM in the test on SN12C renal; 171 µM in the test with HS 578T breast; 278 µM in the test with MALME-3M melanoma; over 500 µM in the test on CCRF-CEM leukemia; over 500 µM with SK-MEL-28 melanoma; 192 µM in the test with SNB-19 CNS. In addition, the GI50 in the test with NCI-H522 lung was over 500 µM; in the test on SR leukemia, 148 µM; in the test with SK-MEL-5 melanoma, over 500 µM; with U251 CNS, 256 µM. For the same compound, the TGI in the test with SN12C renal, in the test on HS 578T breast, in the test with MALME-3M melanoma, in the test with CCRF-CEM leukemia, in the test on SK-MEL-28 melanoma and in the test with SNB-19 CNS was over 500 µM in each case. In addition, the TGI with NCI-H522 lung, in the test with SR leukemia, with SK-MEL-5 melanoma and with U251 CNS was over 500 µM in each case.

(Values after PubChem BioAssay (NCI).)
